# Results taken from ChEMBL document CHEMBL3885861, “Open TG-GATES”.
# Species: Rattus norvegicus
# Test: Open TG-GATES - Regimen: Single
# Format: toxicity, organism-based, Sprague-Dawley
# Set-up: regimen Single, gender Male, age 6 weeks
# Details: in vivo, iv, route intravenous injection; for gamma-GTP / ALT / AST / CRE / DBIL / GLC / K / LDH / Na / PL / RALB / TBIL / TC / TP: tissue Plasma; for Bas / Eos / Hb / Ht / Lym / MCH / MCHC / MCV / Mono / Neu / Plat / RBC / Ret: tissue Blood; for KIDNEY_L / KIDNEY_R / KIDNEY_TOTAL: tissue Kidney
compound,measurement,setting,value
CC(C)C[C@H](NC(=O)[C@H](Cc1ccccc1)NC(=O)c1cnccn1)B(O)O [BORTEZOMIB],gamma-GTP,"0 mg/kg, 24 h, dose level Control",1 IU/L
same,TERMINAL_BW,"1 mg/kg, 3 h, dose level High",228.6 g
same,Bas,"1 mg/kg, 3 h, dose level High",0%
same,Eos,"1 mg/kg, 3 h, dose level High",0.6%
same,Hb,"1 mg/kg, 3 h, dose level High",14.6 g/dL
same,Ht,"1 mg/kg, 3 h, dose level High",41.1%
same,Lym,"1 mg/kg, 3 h, dose level High",73%
same,MCH,"1 mg/kg, 3 h, dose level High",22.6 pg
same,MCHC,"1 mg/kg, 3 h, dose level High",35.4%
same,MCV,"1 mg/kg, 3 h, dose level High",63.7 fL
same,Mono,"1 mg/kg, 3 h, dose level High",2.2%
same,Neu,"1 mg/kg, 3 h, dose level High",23.8%
same,Plat,"1 mg/kg, 3 h, dose level High",121.1 x10_4/uL
same,RBC,"1 mg/kg, 3 h, dose level High",645.8 x10_4/ul
same,Ret,"1 mg/kg, 3 h, dose level High",8.6%
same,KIDNEY_L,"1 mg/kg, 3 h, dose level High",0.9 g
same,KIDNEY_R,"1 mg/kg, 3 h, dose level High",1 g
same,KIDNEY_TOTAL,"1 mg/kg, 3 h, dose level High",1.9 g
same,ALT,"1 mg/kg, 3 h, dose level High",60 IU/L
same,AST,"1 mg/kg, 3 h, dose level High",123.6 IU/L
same,CRE,"1 mg/kg, 3 h, dose level High",0.2 mg/dL
same,DBIL,"1 mg/kg, 3 h, dose level High",0.008 mg/dL
same,GLC,"1 mg/kg, 3 h, dose level High",155 mg/dL
same,K,"1 mg/kg, 3 h, dose level High",4.2 meq/L
same,LDH,"1 mg/kg, 3 h, dose level High",295.6 IU/L
same,Na,"1 mg/kg, 3 h, dose level High",141.3 meq/L
same,PL,"1 mg/kg, 3 h, dose level High",99 mg/dL
same,RALB,"1 mg/kg, 3 h, dose level High",3.7 g/dL
same,TBIL,"1 mg/kg, 3 h, dose level High",0.012 mg/dL
same,TC,"1 mg/kg, 3 h, dose level High",63.6 mg/dL
same,TP,"1 mg/kg, 3 h, dose level High",5 g/dL
same,gamma-GTP,"1 mg/kg, 3 h, dose level High",0.8 IU/L
same,TERMINAL_BW,"1 mg/kg, 6 h, dose level High",226.8 g
same,Bas,"1 mg/kg, 6 h, dose level High",0%
same,Eos,"1 mg/kg, 6 h, dose level High",0.2%
same,Hb,"1 mg/kg, 6 h, dose level High",14.2 g/dL
same,Ht,"1 mg/kg, 6 h, dose level High",39.8%
same,Lym,"1 mg/kg, 6 h, dose level High",61%
same,MCH,"1 mg/kg, 6 h, dose level High",22.8 pg
same,MCHC,"1 mg/kg, 6 h, dose level High",35.7%
same,MCV,"1 mg/kg, 6 h, dose level High",63.8 fL
same,Mono,"1 mg/kg, 6 h, dose level High",2.2%
same,Neu,"1 mg/kg, 6 h, dose level High",35.6%
same,Plat,"1 mg/kg, 6 h, dose level High",113.4 x10_4/uL
same,RBC,"1 mg/kg, 6 h, dose level High",623.4 x10_4/ul
same,Ret,"1 mg/kg, 6 h, dose level High",8.3%
same,KIDNEY_L,"1 mg/kg, 6 h, dose level High",1 g
same,KIDNEY_R,"1 mg/kg, 6 h, dose level High",1 g
same,KIDNEY_TOTAL,"1 mg/kg, 6 h, dose level High",1.9 g
same,ALT,"1 mg/kg, 6 h, dose level High",116.4 IU/L
same,AST,"1 mg/kg, 6 h, dose level High",191.4 IU/L
same,CRE,"1 mg/kg, 6 h, dose level High",0.2 mg/dL
same,DBIL,"1 mg/kg, 6 h, dose level High",0.006 mg/dL
same,GLC,"1 mg/kg, 6 h, dose level High",148.2 mg/dL
same,K,"1 mg/kg, 6 h, dose level High",4.4 meq/L
same,LDH,"1 mg/kg, 6 h, dose level High",314.4 IU/L
same,Na,"1 mg/kg, 6 h, dose level High",141.2 meq/L
same,PL,"1 mg/kg, 6 h, dose level High",78.4 mg/dL
same,RALB,"1 mg/kg, 6 h, dose level High",3.7 g/dL
same,TBIL,"1 mg/kg, 6 h, dose level High",0.008 mg/dL
same,TC,"1 mg/kg, 6 h, dose level High",44.6 mg/dL
same,TP,"1 mg/kg, 6 h, dose level High",4.9 g/dL
same,gamma-GTP,"1 mg/kg, 6 h, dose level High",0.6 IU/L
same,TERMINAL_BW,"1 mg/kg, 9 h, dose level High",222.8 g
same,Bas,"1 mg/kg, 9 h, dose level High",0%
same,Eos,"1 mg/kg, 9 h, dose level High",0.8%
same,Hb,"1 mg/kg, 9 h, dose level High",14.3 g/dL
same,Ht,"1 mg/kg, 9 h, dose level High",40.6%
same,Lym,"1 mg/kg, 9 h, dose level High",49%
same,MCH,"1 mg/kg, 9 h, dose level High",23 pg
same,MCHC,"1 mg/kg, 9 h, dose level High",35.2%
same,MCV,"1 mg/kg, 9 h, dose level High",65.2 fL
same,Mono,"1 mg/kg, 9 h, dose level High",2%
same,Neu,"1 mg/kg, 9 h, dose level High",48.2%
same,RBC,"1 mg/kg, 9 h, dose level High",622 x10_4/ul
same,Ret,"1 mg/kg, 9 h, dose level High",8.2%
same,KIDNEY_L,"1 mg/kg, 9 h, dose level High",1 g
same,KIDNEY_R,"1 mg/kg, 9 h, dose level High",1 g
same,KIDNEY_TOTAL,"1 mg/kg, 9 h, dose level High",2 g
same,ALT,"1 mg/kg, 9 h, dose level High",122.2 IU/L
same,AST,"1 mg/kg, 9 h, dose level High",182 IU/L
same,CRE,"1 mg/kg, 9 h, dose level High",0.2 mg/dL
same,DBIL,"1 mg/kg, 9 h, dose level High",0.014 mg/dL
same,GLC,"1 mg/kg, 9 h, dose level High",150.4 mg/dL
same,K,"1 mg/kg, 9 h, dose level High",4 meq/L
same,LDH,"1 mg/kg, 9 h, dose level High",262 IU/L
same,Na,"1 mg/kg, 9 h, dose level High",140.9 meq/L
same,PL,"1 mg/kg, 9 h, dose level High",74 mg/dL
same,RALB,"1 mg/kg, 9 h, dose level High",3.6 g/dL
same,TBIL,"1 mg/kg, 9 h, dose level High",0.02 mg/dL
same,TC,"1 mg/kg, 9 h, dose level High",36.2 mg/dL
same,TP,"1 mg/kg, 9 h, dose level High",4.7 g/dL
same,gamma-GTP,"1 mg/kg, 9 h, dose level High",0.8 IU/L
same,TERMINAL_BW,"1 mg/kg, 24 h, dose level High",215.1 g
same,Bas,"1 mg/kg, 24 h, dose level High",0%
same,Eos,"1 mg/kg, 24 h, dose level High",0%
same,Hb,"1 mg/kg, 24 h, dose level High",12.6 g/dL
same,Ht,"1 mg/kg, 24 h, dose level High",35.2%
same,Lym,"1 mg/kg, 24 h, dose level High",42%
same,MCH,"1 mg/kg, 24 h, dose level High",23.4 pg
same,MCHC,"1 mg/kg, 24 h, dose level High",35.8%
same,MCV,"1 mg/kg, 24 h, dose level High",65.5 fL
same,Mono,"1 mg/kg, 24 h, dose level High",2.7%
same,Neu,"1 mg/kg, 24 h, dose level High",54%
same,Plat,"1 mg/kg, 24 h, dose level High",89 x10_4/uL
same,RBC,"1 mg/kg, 24 h, dose level High",538.3 x10_4/ul
same,Ret,"1 mg/kg, 24 h, dose level High",5.4%
same,KIDNEY_L,"1 mg/kg, 24 h, dose level High",1 g
same,KIDNEY_R,"1 mg/kg, 24 h, dose level High",1 g
same,KIDNEY_TOTAL,"1 mg/kg, 24 h, dose level High",2 g
same,ALT,"1 mg/kg, 24 h, dose level High",163 IU/L
same,AST,"1 mg/kg, 24 h, dose level High",368.7 IU/L
same,CRE,"1 mg/kg, 24 h, dose level High",0.2 mg/dL
same,DBIL,"1 mg/kg, 24 h, dose level High",0.5 mg/dL
same,GLC,"1 mg/kg, 24 h, dose level High",134.7 mg/dL
same,K,"1 mg/kg, 24 h, dose level High",4 meq/L
same,LDH,"1 mg/kg, 24 h, dose level High",922.3 IU/L
same,Na,"1 mg/kg, 24 h, dose level High",135.5 meq/L
same,PL,"1 mg/kg, 24 h, dose level High",100.3 mg/dL
same,RALB,"1 mg/kg, 24 h, dose level High",2.7 g/dL
same,TBIL,"1 mg/kg, 24 h, dose level High",0.5 mg/dL
same,TC,"1 mg/kg, 24 h, dose level High",41 mg/dL
same,TP,"1 mg/kg, 24 h, dose level High",3.9 g/dL
same,gamma-GTP,"1 mg/kg, 24 h, dose level High",4.3 IU/L
